Reference: US20230250096A1, “SUBSTITUTED PHENYL-1H-PYRROLO[2,3-c] PYRIDINE DERIVATIVES” (Janssen Pharmaceutica NV, priority 2021, published 2023)

Key:
[1] = biological target: T1, menin/MLL (terbium chelate-labeled menin, FITC-MBM1 peptide) (Homo sapiens, UniProt O00255, T541A); assay: Menin/MLL homogenous time-resolved fluorescence (HTRF) assay; assay type: binding; settings: 30 min incubation
T1 construct: Menin (a.a 1-610-6xhis tag, 2.3 mg/mL in 20 mM Hepes)
T1 sequence (O00255 with tags, fused parts or gaps T541A): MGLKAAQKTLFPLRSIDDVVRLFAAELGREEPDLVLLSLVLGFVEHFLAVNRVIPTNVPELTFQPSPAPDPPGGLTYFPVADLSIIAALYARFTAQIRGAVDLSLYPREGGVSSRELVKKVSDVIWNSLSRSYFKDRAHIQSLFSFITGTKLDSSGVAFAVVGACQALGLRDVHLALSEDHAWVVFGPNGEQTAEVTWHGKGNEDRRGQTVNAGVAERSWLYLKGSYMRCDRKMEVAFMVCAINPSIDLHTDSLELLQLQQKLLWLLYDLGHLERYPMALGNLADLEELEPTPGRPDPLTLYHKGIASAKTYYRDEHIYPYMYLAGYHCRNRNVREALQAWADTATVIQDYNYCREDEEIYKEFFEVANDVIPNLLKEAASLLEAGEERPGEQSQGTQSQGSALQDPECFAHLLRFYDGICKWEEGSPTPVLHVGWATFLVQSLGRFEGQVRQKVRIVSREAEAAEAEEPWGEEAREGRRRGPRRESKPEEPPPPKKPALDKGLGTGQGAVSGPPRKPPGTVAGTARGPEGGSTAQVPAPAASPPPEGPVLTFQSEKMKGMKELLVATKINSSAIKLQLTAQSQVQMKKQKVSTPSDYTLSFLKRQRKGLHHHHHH
Outline: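 Competition binding read by time-resolved FRET (FITC 520 nm over terbium 490 nm) after compound meets labeled menin 1-610-His […] for 30 min, then FITC-MBM1 (75 nM) for 15 min, ambient temperature, 0.5% DMSO. Eleven-point four-fold dilutions, usually starting at 10 μM, fitted to four-parameter curves for IC50.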

MEIS1 mRNA expression = MEIS1 mRNA expression assay (Quantigene Singleplex) in MOLM14 cells; assay type: cell-based, human; settings: 48 hours incubation
Outline: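 Read-out: MEIS1 transcript counts, background-subtracted and divided by RPL28, expressed as fold change over DMSO-treated cells, then dose-response modelled for IC50. MOLM14 cells (3,750/well) received graded compound for 48 h before lysis and QuantiGene hybridization at 55 °C.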

Cc1cncc2c1c(CC1CN(CC3CCN(C(=O)OC(C)(C)C)CC3)C1)cn2-c1ccc(F)cc1C(=O)N(C)C(C)C [Compound 62]
IC50 [1]: 0.085 nM | IC50 (MEIS1 mRNA expression; Homo sapiens, MOLM-14, 48 h): 14 nM

CC(=O)N1CCC(C)(CN2CC[C@@H](Cc3cn(-c4ccc(F)cc4C(=O)N(C[C@@H](C)O)C(C)C)c4cncc(C)c34)C2)CC1 [Compound 339]
IC50 [1]: 0.193 nM | IC50 (MEIS1 mRNA expression; Homo sapiens, MOLM-14, 48 h): 68 nM

CC(=O)N1CCCCC1C1(CN2CC(Cc3cn(-c4ccc(F)cc4C(=O)N(C)C(C)C)c4cncc(C)c34)C2)CC1 (stereo not shown) [Compound 297]
IC50 [1]: 0.477 nM | IC50 (MEIS1 mRNA expression; Homo sapiens, MOLM-14, 48 h): > 1000 nM

Cc1cncc2c1c(CC1CCN(CC3CCN(C(=O)N(C)C)CC3)CC1)cn2-c1ccc(F)cc1C(=O)N(C)C(C)C [Compound 235]
IC50 [1]: 0.097 nM | IC50 (MEIS1 mRNA expression; Homo sapiens, MOLM-14, 48 h): 14 nM

Cc1cncc2c1c(C[C@@H]1CCN(CC3CCOCC3)C1)cn2-c1ccc(F)cc1C(=O)N1CCC(O)C1C (stereo in doubt) [Compound 358]
IC50 [1]: 0.223 nM | IC50 (MEIS1 mRNA expression; Homo sapiens, MOLM-14, 48 h): 386 nM

Cc1cncc2c1c(CC1CCN(CC3CCN(C(=O)C(C)C)CC3)C1)cn2-c1ccc(F)cc1C(=O)N1CC(O)CC1C (stereo not shown) [Compound 332]
IC50 [1]: 0.13 nM | IC50 (MEIS1 mRNA expression; Homo sapiens, MOLM-14, 48 h): 196 nM

Cc1cncc2c1c(CC1CN([C@H]3CCN4C(=O)CCC4C3)C1)cn2-c1ccc(F)cc1C(=O)N(C)C(C)C (single isomer, unassigned) [Compound 309b]
IC50 [1]: 0.111 nM | IC50 (MEIS1 mRNA expression; Homo sapiens, MOLM-14, 48 h): > 1000 nM

Cc1cncc2c1c(C[C@@H]1CCN(C[C@H]3CCNC(=O)CC3)C1)cn2-c1ccc(F)cc1C(=O)N1CCC2CC21 (single isomer, unassigned) [Compound 351a]
IC50 [1]: 0.04 nM | IC50 (MEIS1 mRNA expression; Homo sapiens, MOLM-14, 48 h): 12 nM

CC(=O)NC(C)CN1CCC(Cc2cn(-c3ccc(F)cc3C(=O)N(C)C(C)C)c3cncc(C)c23)C1 (single isomer, unassigned) [Compound 103]
IC50 [1]: 3.27 nM | IC50 (MEIS1 mRNA expression): ~5120 nM

CN=[S@@](=O)(c1cc(F)ccc1-n1cc(C[C@@H]2CCN(CC3CCN(C(C)=O)CC3)C2)c2c(C)cncc21)C(C)C (single isomer, unassigned) [Compound 128c]
IC50 [1]: 1.01 nM | IC50 (MEIS1 mRNA expression; Homo sapiens, MOLM-14, 48 h): ~487 nM

CCN(C(=O)c1cc(F)ccc1-n1cc(C[C@@H]2CCN(CC3CCN(C(C)=O)CC3)C2)c2c(C)cncc21)C(C)C [Compound 255]
IC50 [1]: 0.102 nM | IC50 (MEIS1 mRNA expression; Homo sapiens, MOLM-14, 48 h): 10 nM

CC(=O)N1C[C@@H]2CN([C@H]3C[C@@H](CN4CC[C@H](Cc5cn(-c6ccc(F)cc6C(=O)N(C)C(C)C)c6cncc(C)c56)C4)C3)C[C@H]2C1 (single isomer, unassigned) [Compound 31]
IC50 [1]: 0.052 nM | IC50 (MEIS1 mRNA expression; Homo sapiens, MOLM-14, 48 h): ~470 nM

CC(=O)N1CCCC(N2CC[C@H](Cc3cn(-c4ccc(F)cc4C(=O)N(C)C(C)C)c4cncc(C)c34)C2)CC1 (mixture of isomers) [Compound 222]
IC50 [1]: 0.103 nM | IC50 (MEIS1 mRNA expression; Homo sapiens, MOLM-14, 48 h): 259 nM

Cc1cncc2c1c(C[C@@H]1CCN([C@@H]3CCNC(=O)CC3)C1)cn2-c1ccc(F)cc1C(=O)N(C)C(C)C (single isomer, unassigned) [Compound 139b]
IC50 [1]: 0.087 nM | IC50 (MEIS1 mRNA expression; Homo sapiens, MOLM-14, 48 h): 716 nM

Cc1cncc2c1c(C[C@H]1CCN(CC3CCN(C(=O)C4CC4)CC3)C1)cn2-c1ccc(F)cc1C(=O)N(C)C(C)C (single isomer, unassigned) [Compound 135]
IC50 [1]: ~0.056 nM | IC50 (MEIS1 mRNA expression; Homo sapiens, MOLM-14, 48 h): 7 nM

Cc1cncc2c1c(C[C@@H]1CCN(CC3CCN(C(=O)C(C)(C)O)CC3)C1)cn2-c1ccc(F)cc1C(=O)N1CCC2CC21 (stereo partly shown) [Compound 341]
IC50 [1]: 0.037 nM | IC50 (MEIS1 mRNA expression; Homo sapiens, MOLM-14, 48 h): 20 nM

Cc1cncc2c1c(CC1CN(CC3CCC4(CC3)OCCO4)C1)cn2-c1ccc(F)cc1C(=O)N(C)C(C)C [Compound 92]
IC50 [1]: 0.219 nM | IC50 (MEIS1 mRNA expression; Homo sapiens, MOLM-14, 48 h): 52 nM

CC(=O)N1CCC(N2CC[C@H](Cc3cn(-c4ccc(F)cc4C(=O)N(C)C(C)C)c4cncc(C)c34)C2)C(C)C1 (single isomer, unassigned) [Compound 137b]
IC50 [1]: ~0.34 nM | IC50 (MEIS1 mRNA expression): 43 nM

CC(=O)N1CCC([C@@H](C)N2CC[C@H](Cc3cn(-c4ccc(F)cc4[S@@](=N)(=O)C(C)C)c4cncc(C)c34)C2)CC1 (single isomer, unassigned) [Compound 233a]
IC50 [1]: 0.171 nM | IC50 (MEIS1 mRNA expression; Homo sapiens, MOLM-14, 48 h): 247 nM

Cc1cncc2c1c(CC1CN(C[C@H]3CC[C@@H](C(=O)N(C)C)CC3)C1)cn2-c1ccc(F)cc1C(=O)N(C)C(C)C [Compound 221]
IC50 [1]: 0.311 nM | IC50 (MEIS1 mRNA expression; Homo sapiens, MOLM-14, 48 h): 109 nM
